For the test, the target named is T1, TANK-2 enzyme (Homo sapiens, UniProt Q9H2K2).
T1 construct: made in house
T1 sequence (Q9H2K2 1-1166): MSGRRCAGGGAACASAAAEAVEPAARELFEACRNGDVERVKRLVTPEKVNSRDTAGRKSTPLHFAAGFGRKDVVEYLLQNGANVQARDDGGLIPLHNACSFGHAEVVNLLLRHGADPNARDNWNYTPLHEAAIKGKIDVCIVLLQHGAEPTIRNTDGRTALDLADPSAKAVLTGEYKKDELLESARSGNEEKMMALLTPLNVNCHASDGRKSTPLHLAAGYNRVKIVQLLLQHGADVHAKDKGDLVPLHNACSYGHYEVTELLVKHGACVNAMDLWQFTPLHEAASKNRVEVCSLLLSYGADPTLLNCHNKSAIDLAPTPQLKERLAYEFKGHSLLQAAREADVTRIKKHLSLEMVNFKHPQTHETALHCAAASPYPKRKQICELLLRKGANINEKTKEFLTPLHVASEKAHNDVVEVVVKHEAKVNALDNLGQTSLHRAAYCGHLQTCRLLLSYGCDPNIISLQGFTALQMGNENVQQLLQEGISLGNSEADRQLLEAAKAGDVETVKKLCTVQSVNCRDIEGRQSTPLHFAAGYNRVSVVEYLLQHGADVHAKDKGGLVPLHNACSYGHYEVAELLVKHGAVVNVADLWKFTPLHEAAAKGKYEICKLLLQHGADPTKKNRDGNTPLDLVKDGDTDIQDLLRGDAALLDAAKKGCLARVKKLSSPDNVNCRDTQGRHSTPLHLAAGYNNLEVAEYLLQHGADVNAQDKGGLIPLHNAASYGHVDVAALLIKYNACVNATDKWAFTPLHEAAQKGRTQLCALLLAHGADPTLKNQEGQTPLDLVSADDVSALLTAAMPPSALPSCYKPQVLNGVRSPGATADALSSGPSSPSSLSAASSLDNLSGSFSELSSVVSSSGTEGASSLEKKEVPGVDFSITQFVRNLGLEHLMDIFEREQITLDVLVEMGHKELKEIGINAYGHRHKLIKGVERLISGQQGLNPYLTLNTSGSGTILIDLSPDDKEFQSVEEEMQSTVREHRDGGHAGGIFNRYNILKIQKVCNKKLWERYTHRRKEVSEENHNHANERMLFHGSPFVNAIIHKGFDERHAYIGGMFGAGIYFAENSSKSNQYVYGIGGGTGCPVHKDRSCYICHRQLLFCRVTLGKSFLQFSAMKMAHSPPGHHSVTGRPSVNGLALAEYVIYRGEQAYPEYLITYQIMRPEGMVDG
The test is described as follows: In vitro Scintillation Proximity Assay (SPA) for TANK-2 inhibitory activity. Format: biochemical. The following applies: read-out: in vitro SPA assay TANK-2 pIC50 (converted). A digest of the protocol: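 Results are pIC50 values, with IC50 interpolated linearly around 50% of blank-subtracted control cpm. They come from a scintillation proximity read of TANK-2 (8 μg/ml) self-modification with [3H]-NAD+/NAD, incubated 120 min at room temperature in pH 7.4 Tris buffer containing MgCl2 and DTT. Compounds were first screened at 10^−5 M.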

Here are results for 27 molecules from US8778966B2, “Quinolinone derivatives as PARP and tank inhibitors” (Janssen Pharmaceutica, NV, priority 2007, dated 2014).

For `CCc1cc2ccc(C(C)(C#N)Cc3cc(C(F)(F)F)ccc3F)cc2[nH]c1=O` (stereo not drawn) [Compound 283], the IC50 is 398 nM. Consider `CCc1cc2ccc([C@](C)(C#N)CCOc3ccc(C#N)cc3)cc2[nH]c1=O` (single isomer, unassigned) [Compound 275], for which the IC50 was 63.1 nM. Then `CCc1cc2ccc(C(C)(C#N)Cc3nc(C#N)cc(OC)n3)cc2[nH]c1=O` (stereo not drawn) [Compound 313], with 100 nM; and `CCc1cc2ccc(C(C)(C#N)Cc3cc(C#N)nc(OC)c3)cc2[nH]c1=O` (stereo not drawn) [Compound 314], with 25.1 nM. `CCc1cc2ccc(C(C#N)(Cc3ccccc3)C3CC3)cc2[nH]c1=O` (stereo not drawn) [Compound 29]: the IC50 was 31.6 nM. Then `CCc1cc2ccc(C(C)(C#N)Cc3cccc(/C=N/OC)c3)cc2[nH]c1=O` (stereo not drawn) [Compound 185], with 158 nM. Regarding `CCc1cc2ccc(C(C)(C#N)Cc3nc(OC)cc(N(C)C)n3)cc2[nH]c1=O` (stereo not drawn) [Compound 355], the IC50 is 158 nM. Then `CCc1cc2c(OC)cc(C(C)(C#N)Cc3nc(OC)cc(OC)n3)cc2[nH]c1=O` (stereo not drawn) [Compound 229], with 10 nM; and `CCc1cc2ccc([C@@](C)(C#N)CCOc3ccc(C#N)cc3)cc2[nH]c1=O` (single isomer, unassigned) [Compound 273], with 100 nM; and `CCc1cc2ccc(C(C)(C#N)Cc3cc(N(C)C)nc(C)n3)cc2[nH]c1=O` (stereo not drawn) [Compound 322], with 251 nM. On to `CCc1cc2ccc(C(C)(C#N)Cc3cccc(C(=O)OC(C)C)c3)cc2[nH]c1=O` (stereo not drawn) [Compound 255], for which the IC50 is 794 nM. With `CCc1cc2ccc(C(C)(C#N)Cc3cccc(OCCCN4CCNCC4)c3)cc2[nH]c1=O` (stereo not drawn) [Compound 25] the figure was 50.1 nM; with `Cc1cc2ccc(C(C)(C#N)Cc3cccc(C=Cc4ccccc4)c3)cc2[nH]c1=O` (stereo not drawn) [Compound 179], 2510 nM; with `CCc1cc2ccc([C@](C)(C#N)Cc3cccc(C#CCO)c3)cc2[nH]c1=O` (single isomer, unassigned) [Compound 296], 200 nM. With `CCc1cc2ccc(C(C)(C#N)Cc3nc(N(C)C)cc(N(C)C)n3)cc2[nH]c1=O` (stereo not drawn) [Compound 205] the figure was 200 nM; with `CCc1cc2ccc(C(C)(C#N)Cc3cccc(OCCCC#N)c3)cc2[nH]c1=O` (stereo not drawn) [Compound 194], 126 nM. For `CCc1cc2ccc(C(C#N)(Cc3ccccc3)c3ccccc3)cc2[nH]c1=O` (stereo not drawn) [Compound 27], the IC50 is 631 nM. Then `CCc1cc2ccc(C(C)(C#N)Cc3cccc(OCCC#N)c3)cc2[nH]c1=O` (stereo not drawn) [Compound 195], with 398 nM. In the case of `CCc1cc2ccc(C(C)(C#N)Cc3cc(Cl)nc(N(C)C)c3)cc2[nH]c1=O` (stereo not drawn) [Compound 323], the IC50 was 251 nM.

Turning to `CCc1cc2ccc(C(C)(C#N)Cc3cccc(N(C)CCc4ccccc4)n3)cc2[nH]c1=O.Cl` (stereo not drawn) [Compound 220], the IC50 was 1000 nM.

As for `CCc1cc2ccc(C(C)(C#N)Cc3cccc(NC)c3)cc2[nH]c1=O` (stereo not drawn) [Compound 257], the IC50 is 251 nM. As to `Cc1cc2ccc(C(C)(C#N)Cc3cccc(Oc4ccccc4)c3)cc2[nH]c1=O` (stereo not drawn) [Compound 305], the IC50 is 1580 nM. Then `CCc1cc2ccc(C(C)(C#N)Cc3cc(F)ccc3F)cc2[nH]c1=O` (stereo not drawn) [Compound 280], with 126 nM; and `Cc1cc2ccc(C(C)(C#N)Cc3cccc(/C=C/CCO)c3)cc2[nH]c1=O` (stereo not drawn) [Compound 409], with 1000 nM; and `CCc1cc2ccc(C(C)(C#N)CN3CCN(c4ccc(C#N)cn4)CC3)cc2[nH]c1=O` (stereo not drawn) [Compound 377], with 50.1 nM. With `Cc1nc(-c2ccccc2)sc1CC(C)(C#N)c1ccc2cc(C)c(=O)[nH]c2c1` (stereo not drawn) [Compound 235] the figure was 1000 nM. With `CCc1cc2ccc(C(C)(C#N)Cc3cc(Br)cc(N(C)C)c3)cc2[nH]c1=O` (stereo not drawn) [Compound 260] the figure was 251 nM.
